Values of other authors, collected in US8167920B2, “Intranasal delivery of compounds that reduce intrancranial pressure” (Codman & Shurtleff, Inc., priority 2006, dated 2012).

How the values were obtained:
[1] = test system: mesenteries (lymphatic pump); details: 15 minutes superfusion of 30 uM into the mesenteries
[2] = test system: rat mesenteric lymphatics

Structure (SMILES) | increase in lymphatic pump flow index [1] | inhibition of the active lymph pump [2]
COC(=O)[C@@H](N)CCCNC(=N)N[N+](=O)[O-] [L-NAME] | ~40% | –
OO [hydrogen peroxide] | – | intense inhibition
